# Target: T1, PBP1a from Acinetobacter baumannii (ATCC 19606) (Acinetobacter baumannii, UniProt A0ABX6CK30)
# T1 sequence (A0ABX6CK30 1-851): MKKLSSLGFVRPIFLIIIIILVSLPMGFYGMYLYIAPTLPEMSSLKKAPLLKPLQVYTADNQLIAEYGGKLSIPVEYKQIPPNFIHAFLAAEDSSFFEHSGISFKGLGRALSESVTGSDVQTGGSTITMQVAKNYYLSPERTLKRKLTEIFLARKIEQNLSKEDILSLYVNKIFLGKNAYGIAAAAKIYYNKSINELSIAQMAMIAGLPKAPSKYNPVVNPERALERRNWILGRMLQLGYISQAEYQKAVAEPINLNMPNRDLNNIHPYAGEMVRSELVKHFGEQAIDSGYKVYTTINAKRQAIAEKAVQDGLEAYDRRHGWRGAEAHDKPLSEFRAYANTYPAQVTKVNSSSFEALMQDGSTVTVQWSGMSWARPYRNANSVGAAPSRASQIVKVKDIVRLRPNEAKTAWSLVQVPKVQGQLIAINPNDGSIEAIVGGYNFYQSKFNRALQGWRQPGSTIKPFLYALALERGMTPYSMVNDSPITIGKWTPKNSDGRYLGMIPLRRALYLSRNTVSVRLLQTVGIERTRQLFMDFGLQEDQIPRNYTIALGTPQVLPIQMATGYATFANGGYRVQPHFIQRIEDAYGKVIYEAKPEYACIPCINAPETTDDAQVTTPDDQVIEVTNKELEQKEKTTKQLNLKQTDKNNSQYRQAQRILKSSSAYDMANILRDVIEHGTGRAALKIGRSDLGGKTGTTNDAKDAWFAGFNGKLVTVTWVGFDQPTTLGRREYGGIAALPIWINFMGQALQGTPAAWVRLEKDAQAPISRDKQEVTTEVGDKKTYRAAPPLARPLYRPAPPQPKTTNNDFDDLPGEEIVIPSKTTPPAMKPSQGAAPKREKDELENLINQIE
# Assay: Bocillin-FL fluorescence polarization competition binding, A. baumannii PBP1a
# Settings: fluorescence polarization competition binding assay using Bocillin-FL; read-out: A. baumannii PBP1a Potency
# Procedure, shortened: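 Purified PBPs pre-incubated with inhibitor (E. coli PBP3 1.5 μM, 30 min; P. aeruginosa PBP3 0.75 μM, A. baumannii PBP1a 1 μM and PBP3 0.2 μM, 15 min), then Bocillin-FL 0.1 μM (0.05 μM for PBP1a) added; FP read up to 60 min. EC50 = concentration halving bound Bocillin-FL.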
row,Structure (SMILES),IC50 [µM]
1,"O=C(O)c1c(F)ccc2c1OB(O)[C@@H](NC(=O)[C@H](NC(=O)N1CCN(C3CCN(C(=O)Nc4cc(O)ccc4Cl)CC3)C1=O)c1cc(F)c(O)c(O)c1Cl)C2 (single isomer, unassigned) [Example 448]",> 250
2,"O=C(O)c1c(F)ccc2c1OB(O)[C@@H](NC(=O)[C@H](NC(=O)N1CCN(C3CCN(C(=O)Nc4ccc(F)c(O)c4)CC3)C1=O)c1cc(F)c(O)c(O)c1Cl)C2 (single isomer, unassigned) [Example 449]",> 250
3,"O=C(O)c1c(F)ccc2c1OB(O)[C@@H](NC(=O)[C@H](NC(=O)N1CCN(C3CCN(C(=O)Nc4cc(O)cc(F)c4)CC3)C1=O)c1cc(F)c(O)c(O)c1Cl)C2 (single isomer, unassigned) [Example 450]",> 250
4,"O=C(O)c1c(F)ccc2c1OB(O)[C@@H](NC(=O)[C@H](NC(=O)N1CCN(C3CCN(C(=O)Nc4c(F)ccc(O)c4F)CC3)C1=O)c1cc(F)c(O)c(O)c1Cl)C2 (single isomer, unassigned) [Example 454]",> 250
5,"O=C(O)c1cccc2c1OB(O)[C@@H](NC(=O)C(NC(=O)N1CCN(Cc3cc(F)c(O)c(O)c3Cl)C(=O)C1=O)c1ccc(P(=O)(O)O)cc1)C2 (stereo partly drawn) [Example 164, (3R)-3-(2-(4-(2-chloro-5-fluoro-3,4-dihydroxybenzyl)-2,3-dioxopiperazine-1-carboxamido)-2-(4-phosphonophenyl)acetamido)-2-hydroxy-3,4-dihydro-2H-benzo[e][1,2]oxaborinine-8-carboxylic acid]",> 250
6,"O=C(O)c1c(F)ccc2c1OB(O)[C@@H](NC(=O)C(NC(=O)N1CCN(C3CCN(C(=O)Nc4ccc(F)c(O)c4F)CC3)C1=O)c1cc(F)c(O)c(O)c1Cl)C2 (stereo partly drawn) [Example 452, (3R)-3-(2-(2-chloro-5-fluoro-3,4-dihydroxyphenyl)-2-(3-(1-((2,4-difluoro-3-hydroxyphenyl)carbamoyl)piperidin-4-yl)-2-oxoimidazolidine-1-carboxamido)acetamido)-7-fluoro-2-hydroxy-3,4-dihydro-2H-benzo[e][1,2]oxaborinine-8-carboxylic acid]",> 250
7,"O=C(O)c1c(F)ccc2c1OB(O)[C@@H](NC(=O)C(NC(=O)N1CCN(C3CCN(C(=O)Nc4cc(O)ccc4F)CC3)C(=O)C1=O)c1cc(F)c(O)c(O)c1Cl)C2 (stereo partly drawn) [Example 479, (3R)-3-(2-(2-chloro-5-fluoro-3,4-dihydroxyphenyl)-2-(4-(1-((2-fluoro-5-hydroxyphenyl)carbamoyl)piperidin-4-yl)-2,3-dioxopiperazine-1-carboxamido)acetamido)-7-fluoro-2-hydroxy-3,4-dihydro-2H-benzo[e][1,2]oxaborinine-8-carboxylic acid]",> 250
8,"O=C(O)c1c(F)ccc2c1OB(O)[C@@H](NC(=O)C(NC(=O)N1CCN(C3CCN(C(=O)Nc4ccc(F)c(O)c4)CC3)C(=O)C1=O)c1cc(F)c(O)c(O)c1Cl)C2 (stereo partly drawn) [Example 480, (3R)-3-(2-(2-chloro-5-fluoro-3,4-dihydroxyphenyl)-2-(4-(1-((4-fluoro-3-hydroxyphenyl)carbamoyl)piperidin-4-yl)-2,3-dioxopiperazine-1-carboxamido)acetamido)-7-fluoro-2-hydroxy-3,4-dihydro-2H-benzo[e][1,2]oxaborinine-8-carboxylic acid]",> 250
9,"O=C(O)c1c(F)ccc2c1OB(O)[C@@H](NC(=O)C(NC(=O)N1CCN(C3CCN(C(=O)Nc4cc(O)cc(F)c4)CC3)C(=O)C1=O)c1cc(F)c(O)c(O)c1Cl)C2 (stereo partly drawn) [Example 481, (3R)-3-(2-(2-chloro-5-fluoro-3,4-dihydroxyphenyl)-2-(4-(1-((3-fluoro-5-hydroxyphenyl)carbamoyl)piperidin-4-yl)-2,3-dioxopiperazine-1-carboxamido)acetamido)-7-fluoro-2-hydroxy-3,4-dihydro-2H-benzo[e][1,2]oxaborinine-8-carboxylic acid]",> 250
